Paper PMC5085999, “Structural Basis for Differences in Dynamics Induced by Leu Versus Ile Residues in the CD Loop of Kir Channels” (Molecular Neurobiology, 2015)
Changes are numbered by the printed parent chain.

Experiments:
Experiment in all cases: inside-out macropatch dose-response of channel expressed in Xenopus oocytes
Assay type in all cases: cell-based
Kir2.1 [1] = molecular target: T1, Kir2.1 (Mus musculus, UniProt P35561, L222I)
T1 construct: gene Kcnj2
T1 sequence (P35561 1-428 L222I): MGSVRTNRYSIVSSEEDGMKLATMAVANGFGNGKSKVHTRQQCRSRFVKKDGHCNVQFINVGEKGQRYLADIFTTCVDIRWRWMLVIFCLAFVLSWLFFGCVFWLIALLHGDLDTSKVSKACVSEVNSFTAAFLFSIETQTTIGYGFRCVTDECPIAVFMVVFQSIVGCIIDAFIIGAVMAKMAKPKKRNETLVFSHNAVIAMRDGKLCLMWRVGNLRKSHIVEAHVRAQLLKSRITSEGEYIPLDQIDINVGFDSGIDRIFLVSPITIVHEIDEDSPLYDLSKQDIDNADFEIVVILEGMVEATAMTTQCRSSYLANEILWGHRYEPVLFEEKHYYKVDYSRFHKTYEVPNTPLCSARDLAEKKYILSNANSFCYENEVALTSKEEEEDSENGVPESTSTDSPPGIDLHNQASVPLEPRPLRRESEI

Kir2.1 [2] = molecular target: T2, Kir2.1 (Mus musculus, UniProt P35561)
T2 construct: gene Kcnj2
T2 sequence (P35561 1-428): T1 sequence (P35561 1-428 L222I) with I222L

Kir2.2 [3] = molecular target: T3, Kir2.2 (Homo sapiens, UniProt Q14500)
T3 construct: gene KCNJ12
T3 sequence (Q14500 1-433): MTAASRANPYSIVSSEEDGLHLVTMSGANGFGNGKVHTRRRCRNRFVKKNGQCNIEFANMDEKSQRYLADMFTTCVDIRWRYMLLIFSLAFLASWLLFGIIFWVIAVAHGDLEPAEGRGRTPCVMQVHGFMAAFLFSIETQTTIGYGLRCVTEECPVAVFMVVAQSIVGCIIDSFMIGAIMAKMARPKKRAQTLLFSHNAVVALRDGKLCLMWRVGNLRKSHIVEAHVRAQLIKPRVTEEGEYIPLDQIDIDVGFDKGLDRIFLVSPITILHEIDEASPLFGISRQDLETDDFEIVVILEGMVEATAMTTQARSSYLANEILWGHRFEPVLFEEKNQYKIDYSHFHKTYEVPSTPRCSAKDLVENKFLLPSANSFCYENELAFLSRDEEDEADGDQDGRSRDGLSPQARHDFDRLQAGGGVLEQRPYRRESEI

Kir2.2 [4] = molecular target: T4, Kir2.2 (Homo sapiens, UniProt Q14500, I223L)
T4 construct: gene KCNJ12
T4 sequence (Q14500 1-433 I223L): T3 sequence (Q14500 1-433) with I223L

- EC50 (Kir2.1 [1]): 14 ± 0.98 µM
- EC50 (Kir2.1 [2]): 2.89 ± 0.31 µM
- EC50 (Kir2.2 [3]): 6.14 ± 0.45 µM
- EC50 (Kir2.2 [4]): 1.9 ± 0.23 µM
Structure (SMILES): CCCCCCCC(=O)OC[C@H](COP(=O)(O)O[C@@H]1[C@H](O)[C@H](O)[C@@H](OP(=O)(O)O)[C@H](OP(=O)(O)O)[C@H]1O)OC(=O)CCCCCCC [diC8 PIP2]
